From BindingDB's records for doi:10.1016/j.chembiol.2014.12.015 (University of Florida College of Medicine, 2015)

What was measured:
Test in all cases: HDAC Activity Assays
[1] = target: Histone deacetylase 1/Nuclear receptor corepressor 2 [395-498] (Homo sapiens, UniProt Q13547)
Description: (§1) The enzyme activities were initially tested in a serial dilution of each HDAC using the HDAC-Glo I/II reagents (Promega) according to the manufacturer s protocol. Luminescence was detected using the BMG POLARstar Omega microplate reader. A concentration of each HDAC within the linear response region was used for assaying inhibition of HDAC activity by UF010 and analogs. Each compound was tested in 10-point dose-response assay in triplicate.

[2] = target: Histone deacetylase 2/Nuclear receptor corepressor 2 [395-498] (Homo sapiens, UniProt Q92769)
Description: as §1

[3] = target: Histone deacetylase 3/Nuclear receptor corepressor 2 [395-498] (Homo sapiens, UniProt O15379)
Description: as §1

Histone deacetylase 6 = target: T1, Histone deacetylase 6 (Homo sapiens, UniProt Q9UBN7)
T1 sequence (Q9UBN7 whole entry): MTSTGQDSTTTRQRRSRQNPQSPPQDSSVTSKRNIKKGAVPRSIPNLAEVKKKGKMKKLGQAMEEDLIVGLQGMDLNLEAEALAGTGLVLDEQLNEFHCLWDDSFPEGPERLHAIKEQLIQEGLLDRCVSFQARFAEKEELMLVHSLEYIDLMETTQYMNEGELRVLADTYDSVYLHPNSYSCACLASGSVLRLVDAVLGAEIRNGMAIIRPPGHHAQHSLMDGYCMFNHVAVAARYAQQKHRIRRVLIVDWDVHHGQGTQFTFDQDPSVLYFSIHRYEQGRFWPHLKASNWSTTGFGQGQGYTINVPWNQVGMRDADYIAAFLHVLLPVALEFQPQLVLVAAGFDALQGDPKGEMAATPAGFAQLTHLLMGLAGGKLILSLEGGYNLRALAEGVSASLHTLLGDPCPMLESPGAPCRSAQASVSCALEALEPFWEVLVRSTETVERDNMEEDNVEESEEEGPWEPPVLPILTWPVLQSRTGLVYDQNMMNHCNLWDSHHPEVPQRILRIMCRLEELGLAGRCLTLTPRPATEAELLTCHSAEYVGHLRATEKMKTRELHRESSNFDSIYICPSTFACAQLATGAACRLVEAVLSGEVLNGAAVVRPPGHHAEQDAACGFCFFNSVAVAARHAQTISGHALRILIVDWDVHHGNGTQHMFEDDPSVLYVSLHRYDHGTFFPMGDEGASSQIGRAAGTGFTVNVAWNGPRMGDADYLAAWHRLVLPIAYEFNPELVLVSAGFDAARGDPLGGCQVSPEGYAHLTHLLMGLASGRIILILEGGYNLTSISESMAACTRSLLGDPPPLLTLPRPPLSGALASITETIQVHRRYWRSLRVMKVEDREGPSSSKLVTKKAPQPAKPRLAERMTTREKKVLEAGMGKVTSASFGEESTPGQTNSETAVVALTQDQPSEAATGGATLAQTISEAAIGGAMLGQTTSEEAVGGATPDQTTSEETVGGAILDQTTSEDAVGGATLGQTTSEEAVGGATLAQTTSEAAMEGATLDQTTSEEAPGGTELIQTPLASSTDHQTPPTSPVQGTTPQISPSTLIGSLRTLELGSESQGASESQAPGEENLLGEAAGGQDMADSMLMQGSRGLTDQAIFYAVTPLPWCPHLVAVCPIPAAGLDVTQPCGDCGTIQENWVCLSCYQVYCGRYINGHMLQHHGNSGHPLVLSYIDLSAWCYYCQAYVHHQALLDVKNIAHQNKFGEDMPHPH
Description: as §1

Histone deacetylase 8 = target: T2, Histone deacetylase 8 (Homo sapiens, UniProt Q9BY41)
T2 sequence (Q9BY41 whole entry): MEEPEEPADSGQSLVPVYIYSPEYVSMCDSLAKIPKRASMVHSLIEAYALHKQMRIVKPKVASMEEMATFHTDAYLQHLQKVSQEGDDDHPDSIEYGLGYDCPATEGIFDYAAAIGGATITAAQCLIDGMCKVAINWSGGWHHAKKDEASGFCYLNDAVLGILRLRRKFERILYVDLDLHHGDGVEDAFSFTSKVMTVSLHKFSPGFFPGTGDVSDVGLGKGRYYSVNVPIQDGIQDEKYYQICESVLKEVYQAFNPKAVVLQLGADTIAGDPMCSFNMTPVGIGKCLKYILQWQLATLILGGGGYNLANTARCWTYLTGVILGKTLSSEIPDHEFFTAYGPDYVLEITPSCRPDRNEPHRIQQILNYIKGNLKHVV
Description: as §1

Chain of Histone deacetylase 1/Nuclear receptor corepressor 2 [395-498] (Q13547 whole entry): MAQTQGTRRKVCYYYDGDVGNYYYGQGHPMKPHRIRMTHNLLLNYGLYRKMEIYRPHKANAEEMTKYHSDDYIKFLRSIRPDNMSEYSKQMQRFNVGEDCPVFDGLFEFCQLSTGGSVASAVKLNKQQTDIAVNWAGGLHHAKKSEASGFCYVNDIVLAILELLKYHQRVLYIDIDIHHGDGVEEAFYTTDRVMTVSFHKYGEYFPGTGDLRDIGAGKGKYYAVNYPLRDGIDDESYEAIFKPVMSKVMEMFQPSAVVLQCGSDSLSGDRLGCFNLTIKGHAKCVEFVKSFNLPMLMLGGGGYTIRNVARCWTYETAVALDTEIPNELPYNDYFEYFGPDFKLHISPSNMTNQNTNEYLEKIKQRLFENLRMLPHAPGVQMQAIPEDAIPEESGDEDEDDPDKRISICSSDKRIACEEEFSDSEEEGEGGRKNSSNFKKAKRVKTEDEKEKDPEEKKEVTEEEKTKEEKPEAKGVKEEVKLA
Chain of Histone deacetylase 1/Nuclear receptor corepressor 2 [395-498] (Q9Y618 395-498, further chain): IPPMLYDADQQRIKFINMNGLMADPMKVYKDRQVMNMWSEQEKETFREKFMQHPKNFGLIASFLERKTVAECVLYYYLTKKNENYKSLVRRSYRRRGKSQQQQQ
Chain of Histone deacetylase 2/Nuclear receptor corepressor 2 [395-498] (Q92769 whole entry): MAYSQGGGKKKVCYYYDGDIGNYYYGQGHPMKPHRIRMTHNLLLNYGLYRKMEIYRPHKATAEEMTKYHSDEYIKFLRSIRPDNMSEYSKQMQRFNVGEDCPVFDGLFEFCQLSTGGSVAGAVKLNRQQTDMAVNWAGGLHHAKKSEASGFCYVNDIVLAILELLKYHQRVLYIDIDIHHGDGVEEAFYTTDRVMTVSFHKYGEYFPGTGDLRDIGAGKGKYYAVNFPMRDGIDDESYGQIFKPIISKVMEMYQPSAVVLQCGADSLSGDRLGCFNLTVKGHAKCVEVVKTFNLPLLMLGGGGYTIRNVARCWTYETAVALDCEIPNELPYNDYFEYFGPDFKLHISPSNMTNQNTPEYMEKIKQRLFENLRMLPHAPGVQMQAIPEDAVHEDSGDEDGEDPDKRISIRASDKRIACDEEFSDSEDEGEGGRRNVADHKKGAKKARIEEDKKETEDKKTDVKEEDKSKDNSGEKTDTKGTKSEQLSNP
Chain of Histone deacetylase 2/Nuclear receptor corepressor 2 [395-498] (Q9Y618 395-498, further chain): as the sequence (Q9Y618 395-498, further chain) above
Chain of Histone deacetylase 3/Nuclear receptor corepressor 2 [395-498] (O15379 whole entry): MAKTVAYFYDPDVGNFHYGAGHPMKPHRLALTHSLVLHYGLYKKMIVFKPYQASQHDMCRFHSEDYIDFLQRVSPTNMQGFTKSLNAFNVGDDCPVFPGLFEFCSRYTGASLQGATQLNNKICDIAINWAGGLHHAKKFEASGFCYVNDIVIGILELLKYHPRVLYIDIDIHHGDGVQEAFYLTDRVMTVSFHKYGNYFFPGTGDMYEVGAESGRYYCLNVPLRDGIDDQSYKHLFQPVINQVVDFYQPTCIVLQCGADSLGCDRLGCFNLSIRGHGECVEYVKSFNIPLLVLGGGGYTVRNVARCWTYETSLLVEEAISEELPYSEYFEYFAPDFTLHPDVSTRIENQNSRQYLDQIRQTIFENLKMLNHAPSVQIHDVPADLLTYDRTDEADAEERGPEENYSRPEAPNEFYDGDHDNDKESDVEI
Chain of Histone deacetylase 3/Nuclear receptor corepressor 2 [395-498] (Q9Y618 395-498, further chain): as the sequence (Q9Y618 395-498, further chain) above

| Structure (SMILES) | IC50 [1] [µM] | IC50 [2] [µM] | IC50 [3] [µM] | IC50 (Histone deacetylase 6) [µM] | IC50 (Histone deacetylase 8) [µM] |
| --- | --- | --- | --- | --- | --- |
| CCCCNNC(=O)c1ccc(F)cc1 [SR-3203] | 13.2 | 15.1 | 1.78 |  |  |
| CCCCNNC(=O)c1ccc(OC(F)(F)F)cc1 [SR-3204] | 8.86 | 9.09 | 1.35 |  |  |
| CCCCNNC(=O)c1ccc(OC)cc1 [SR-3206] | 1.91 | 2.52 | 0.43 |  |  |
| CCCCNNC(=O)c1ccc(N(C)C)cc1 [SR-3208] | 0.23 | 0.88 | 0.12 | 9.57 | 0.72 |
| CCCCNNC(=O)c1ccc(Cl)cc1 [SR-3210] | 3 | 3.8 | 2.5 |  |  |
| O=C(NNCCC1CCCC1)c1ccc(Br)cc1 [SR-3297] | 7.4 | 7.65 | 1.08 |  |  |
| CN(C)c1ccc(C(=O)NNCC2CCCC2)cc1 [SR-3298] | 1.76 | 3.25 | 1.67 |  |  |
| CCCCNNC(=O)c1ccc(C(C)(C)C)cc1 [SR-3302] | 0.19 | 1.04 | 0.07 | 6.83 | 0.49 |
| O=C(NNCC1CCCC1)c1ccc(Br)cc1 [SR-3364] | 8.81 | 28.4 | 6.98 |  |  |
| O=C(NNCCCC1CCCC1)c1ccc(Br)cc1 [SR-3365] | > 50 | > 50 | > 50 |  |  |
| CCCCCCNNC(=O)c1ccc(Br)cc1 [SR-3367] | 10.3 | 16.1 | 20 | 39.1 |  |
| CCCCCNNC(=O)c1ccc(Br)cc1 [SR-3970] | 1.87 | 1.92 | 0.92 | 5.73 | 4.87 |
| CCCCNNC(=O)c1ccc(Br)cc1 [UF010] |  |  |  | 9.09 | 2.83 |
